{
  "source": "patent US6156789A",
  "about": "“Method for treating abnormal cell proliferation in the brain” (Rhone-Poulenc Rorer S.A., priority 1998, dated 2000)",
  "test": "Brain distribution of Compound A in mice with mammary C/16 adenocarcinomas (second method, brain tissue)",
  "assay_type": "in vivo, C3H/HeN female mice",
  "description": "Mammary C/16 adenocarcinomas were implanted in C3H/HeN female mice. At least 7 days later, 4α,10β-diacetoxy-2α-benzoyloxy-5β,20-epoxy-1β-hydroxy-7β,8β-methylene-9-oxo-19-nor-11-taxen-13α-yl (2R,3S)-3-tert-butoxycarbonylamino-2-hydroxy-3-phenylpropionate (\"Compound A\") was administered to groups of female mice at doses of 9.5, 15.4, 24.8, 40 or 60.5 mg/kg by intravenous injection under 0.4 or 0.5 ml/injection over 15 seconds. The body weight and date of implantation were recorded for each mouse. Blood and tissue samples were taken 2, 5, 15, 30 and 45 minutes and 1, 4, 14, 24 and 48 hours, after administration. The plasma was separated from the blood samples at 4° C. and frozen immediately. The tissue and tumors were weighed and frozen immediately (-20° C.).\nThe plasma and tissue samples were then analyzed for the concentration of Compound A. The plasma was assayed by high pressure liquid chromatography with spectrophotometric detection. For the tissue, liver, heart, kidney, lung, spleen and tumor tissue, samples were assayed by a first method, while a second method was used for the brain tissue analyzed. In the first method, 0.2 g of tissue was combined with 2 ml of sodium phosphate buffer 0.1 M (pH:7) and homogenized. The homogenate was centrifuged and 0.5 ml of supernatant was injected into the chromatographic column. In the second method, 10 μl of standard solution was combined with 0.2 g of brain tissue. 2 ml of methanol/5% perchloric acid (50/50) were added and the mixture was homogenized. The homogenate was centrifuged and 100 μl of supernatant was injected into the chromatographic column.",
  "key": {"[1]": {"settings": "4 h, 40 μg/kg [sic], single mice, 40 mg/kg, 240 min"}, "[2]": {"settings": "14 h, 40 μg/kg [sic], single mice"}, "[3]": {"settings": "24 h, 40 μg/kg [sic], single mice"}, "[4]": {"settings": "24 h, 40 μg/kg [sic], single mice, 40 mg/kg, 1440 min"}, "[5]": {"settings": "48 h, 40 μg/kg [sic], single mice"}},
  "note": "Where “and” joins values, the source holds several entries; their conditions need not be identical. Equal entries are not always repeated. Where two headings read alike, the source gives them in different places.",
  "data": [
    {"smiles": "CC(=O)O[C@H]1C(=O)[C@]23C[C@H]2C[C@H]2OC[C@@]2(OC(C)=O)[C@H]3[C@H](OC(=O)c2ccccc2)[C@]2(O)C[C@H](OC(=O)[C@H](O)[C@@H](NC(=O)OC(C)(C)C)c3ccccc3)C(C)=C1C2(C)C", "note": "[Compound A, 4α,10β-diacetoxy-2α-benzoyloxy-5β,20-epoxy-1β-hydroxy-7β,8β-methylene-9-oxo-19-nor-11-taxen-13α-yl (2R,3S)-3-tert-butoxycarbonylamino-2-hydroxy-3-phenylpropionate]", "values": [
      {"measurement": "Brain CONC.", "setting": "[1]", "result": "10.24 µg/g and 7.88 µg/g and 8.38 µg/g and 8.47 µg/g"},
      {"measurement": "RATIO BRAIN/PLASMA", "setting": "[1]", "result": "2.46 and 2.7 and 2.71"},
      {"measurement": "Percentage of Compound A (of dose) in Brain", "setting": "4 h, 40 mg/kg", "result": 0.39, "unit": "%"},
      {"measurement": "% of DOSE (brain)", "setting": "[2]", "result": "0.40% and 0.44% and 0.28% and 0.38%"},
      {"measurement": "AMOUNT In TISSUE (brain)", "setting": "[2]", "result": "3.73 µg and 4.06 µg and 2.46 µg and 3.65 µg and 3.48 µg"},
      {"measurement": "Brain CONC.", "setting": "14 h, 40 μg/kg [sic], single mice, 40 mg/kg, 840 min", "result": "8.77 µg/g and 5.77 µg/g and 8.23 µg/g and 7.84 µg/g"},
      {"measurement": "% of DOSE (brain)", "setting": "[3]", "result": "0.39% and 0.29% and 0.33%"},
      {"measurement": "AMOUNT In TISSUE (brain)", "setting": "[3]", "result": "3.78 µg and 2.58 µg and 2.79 µg and 3.08 µg and 3.06 µg"},
      {"measurement": "Brain CONC.", "setting": "[4]", "result": "6.00 µg/g and 6.20 µg/g and 7.03 µg/g and 6.95 µg/g"},
      {"measurement": "RATIO BRAIN/PLASMA", "setting": "[4]", "result": "20.67 and 20.68"},
      {"measurement": "Percentage of Compound A (of dose) in Brain", "setting": "24 h, 40 mg/kg", "result": 0.33, "unit": "%"},
      {"measurement": "% of DOSE (brain)", "setting": "[5]", "result": "0.15% and 0.21% and 0.20% and 0.19%"},
      {"measurement": "AMOUNT In TISSUE (brain)", "setting": "[5]", "result": "1.55 µg and 2.02 µg and 2.13 µg and 1.97 µg and 1.92 µg"},
      {"measurement": "Brain CONC.", "setting": "48 h, 40 μg/kg [sic], single mice, 40 mg/kg, 2880 min", "result": "4.54 µg/g and 4.77 µg/g and 4.48 µg/g and 4.37 µg/g"},
      {"measurement": "Percentage of Compound A (of dose) in Brain", "setting": "48 h, 40 mg/kg", "result": 0.19, "unit": "%"},
      {"measurement": "AUC 0-4 Hours, Brain", "setting": "dose = 40 mg/kg", "result": 36.3, "unit": "µg·h/g"},
      {"measurement": "AUC 0 to Infinity, Brain", "setting": "dose = 40 mg/kg", "result": 627, "unit": "µg·h/g"},
      {"measurement": "t 1/2, Brain", "setting": "dose = 40 mg/kg", "result": 47.6, "unit": "h"},
      {"measurement": "half-life", "setting": "mouse, brain, iv, 40 mg/kg, 40 mg/kg i.v., read-out: half-life of the distribution phase, brain (converted)", "result": 0.07, "unit": "h"},
      {"measurement": "concentration at 0.03 h", "setting": "mouse, brain, iv, 40 mg/kg, 0.03 h, 40 μg/kg [sic], single mice, read-out: Brain CONC.", "result": 9800, "unit": "ng/g"},
      {"measurement": "concentration at 0.08 h", "setting": "mouse, brain, iv, 40 mg/kg, 0.08 h, 40 μg/kg [sic], single mice, MEAN=b257, read-out: Brain CONC.", "result": 13500, "unit": "ng/g"},
      {"measurement": "concentration at 0.25 h", "setting": "mouse, brain, iv, 40 mg/kg, 0.25 h, 40 μg/kg [sic], single mice, read-out: Brain CONC.", "result": 13200, "unit": "ng/g"},
      {"measurement": "concentration at 0.5 h", "setting": "mouse, brain, iv, 40 mg/kg, 0.50 h, 40 μg/kg [sic], single mice, read-out: Brain CONC.", "result": 11200, "unit": "ng/g"},
      {"measurement": "concentration at 0.75 h", "setting": "mouse, brain, iv, 40 mg/kg, 0.75 h, 40 μg/kg [sic], single mice, MEAN=b278, read-out: Brain CONC.", "result": 7540, "unit": "ng/g"},
      {"measurement": "concentration at 1 h", "setting": "mouse, brain, iv, 40 mg/kg, 1 h, 40 μg/kg [sic], single mice, read-out: Brain CONC.", "result": 11500, "unit": "ng/g"},
      {"measurement": "concentration at 4 h", "setting": "mouse, brain, iv, 40 mg/kg, 4 h, 40 μg/kg [sic], single mice, read-out: Brain CONC.", "result": 7390, "unit": "ng/g"},
      {"measurement": "concentration at 14 h", "setting": "mouse, brain, iv, 40 mg/kg, 14 h, 40 μg/kg [sic], single mice, read-out: Brain CONC.", "result": 8570, "unit": "ng/g"},
      {"measurement": "concentration at 24 h", "setting": "mouse, brain, iv, 40 mg/kg, 24 h, 40 μg/kg [sic], single mice, read-out: Brain CONC.", "result": 8580, "unit": "ng/g"},
      {"measurement": "concentration at 48 h", "setting": "mouse, brain, iv, 40 mg/kg, 48 h, 40 μg/kg [sic], single mice, read-out: Brain CONC.", "result": 3670, "unit": "ng/g"},
      {"measurement": "half-life", "setting": "mouse, brain, iv, 40 mg/kg, read-out: t 1/2, Brain (converted)", "result": 47.6, "unit": "h"},
      {"measurement": "Tmax", "setting": "mouse, brain, iv, 40 mg/kg i.v., read-out: time of maximum concentration, brain", "result": 15, "unit": "min"},
      {"measurement": "Kp at 0.03 h", "setting": "mouse, brain/plasma, iv, 40 mg/kg, 0.03 h, 40 μg/kg [sic], single mice, read-out: RATIO BRAIN/PLASMA", "result": 0.2},
      {"measurement": "Kp at 0.08 h", "setting": "mouse, brain/plasma, iv, 40 mg/kg, 0.08 h, 40 μg/kg [sic], single mice, MEAN=b257, read-out: RATIO BRAIN/PLASMA", "result": 0.47},
      {"measurement": "Kp at 0.25 h", "setting": "mouse, brain/plasma, iv, 40 mg/kg, 0.25 h, 40 μg/kg [sic], single mice, read-out: RATIO BRAIN/PLASMA", "result": 0.6},
      {"measurement": "Kp at 0.5 h", "setting": "mouse, brain/plasma, iv, 40 mg/kg, 0.50 h, 40 μg/kg [sic], single mice, read-out: RATIO BRAIN/PLASMA", "result": 0.93},
      {"measurement": "Kp at 1 h", "setting": "mouse, brain/plasma, iv, 40 mg/kg, 1 h, 40 μg/kg [sic], single mice, read-out: RATIO BRAIN/PLASMA", "result": 1.42},
      {"measurement": "Kp at 4 h", "setting": "mouse, brain/plasma, iv, 40 mg/kg, 4 h, 40 μg/kg [sic], single mice, read-out: RATIO BRAIN/PLASMA", "result": 2.84},
      {"measurement": "Kp at 24 h", "setting": "mouse, brain/plasma, iv, 40 mg/kg, 24 h, 40 μg/kg [sic], single mice, read-out: RATIO BRAIN/PLASMA", "result": 20.7}
    ]}
  ]
}
